Assay [1] has as its target T1, Rat recombinant PDE10A (rPDE10A2) (Rattus norvegicus, UniProt Q9QYJ6).
T1 construct: inferred from the Ni metal chelate purification; made in house; host or cells: Sf9 insect cells (baculovirus)
T1 sequence (Q9QYJ6 1-794): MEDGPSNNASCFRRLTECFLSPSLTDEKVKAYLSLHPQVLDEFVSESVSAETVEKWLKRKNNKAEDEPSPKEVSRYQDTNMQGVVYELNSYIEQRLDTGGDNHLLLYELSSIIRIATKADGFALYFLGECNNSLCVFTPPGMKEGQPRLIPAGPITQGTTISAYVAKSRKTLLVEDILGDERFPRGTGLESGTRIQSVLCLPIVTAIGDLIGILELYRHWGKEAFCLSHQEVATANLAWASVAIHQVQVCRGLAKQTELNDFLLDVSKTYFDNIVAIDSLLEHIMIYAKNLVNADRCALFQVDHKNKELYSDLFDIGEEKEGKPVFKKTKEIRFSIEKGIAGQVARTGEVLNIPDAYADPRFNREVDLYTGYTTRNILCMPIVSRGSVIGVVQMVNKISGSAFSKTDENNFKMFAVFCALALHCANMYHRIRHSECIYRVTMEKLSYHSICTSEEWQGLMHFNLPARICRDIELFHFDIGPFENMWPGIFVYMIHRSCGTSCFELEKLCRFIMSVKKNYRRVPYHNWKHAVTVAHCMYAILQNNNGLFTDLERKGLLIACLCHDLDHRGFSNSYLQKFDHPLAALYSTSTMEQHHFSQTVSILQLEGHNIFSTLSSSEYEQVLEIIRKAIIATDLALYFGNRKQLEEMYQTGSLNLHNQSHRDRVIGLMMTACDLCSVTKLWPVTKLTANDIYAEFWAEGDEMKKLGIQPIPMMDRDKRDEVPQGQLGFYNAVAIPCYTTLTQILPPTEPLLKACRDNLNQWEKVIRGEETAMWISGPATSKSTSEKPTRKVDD
As to the kind of experiment: In vitro assay PDE10A (SPA, 3H-cAMP). Type of assay: biochemical. Put shortly:
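Scintillation proximity read-out (cpm) of 3H-cAMP hydrolysis after 60 min at room temperature, with enzyme-free blanks and 1% DMSO controls. Enzyme was Sf9-expressed, Ni-sepharose-purified rat rPDE10A2; substrate 60 nM cAMP with tracer, buffer Tris pH 7.8 containing MgCl2 and EGTA.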

Another assay deals with T2, PDE10 (Rattus norvegicus, UniProt Q9QYJ6).
T2 construct: from tissue; host or cells: rat brain sections, striatum (in vivo dosing, ex vivo autoradiography)
T2 sequence (Q9QYJ6 1-794): T1 sequence (Q9QYJ6 1-794)
In words: PDE10 occupancy ([3H]-MP-10, striatum). Type of assay: in vivo. To be noted: for receptor occupancy at 10 mg/kg: rat, single dose 10 mg/kg. The protocol: Dose-response or single dose experiments were performed to measure PDE10 occupancy 1 hour after subcutaneous (s.c.) or oral (p.o.) administration. Male Wistar rats (200 g) were treated by s.c. or p.o. administration of various PDE10 inhibitors. The PDE10 radioligand [^3H]-MP-10 (10 μCi/animal) was injected intravenously (i.v.) 30 minutes before sacrifice. Brains were immediately removed from the skull and rapidly frozen. Twenty μm-thick brain sections were cut using a cryostat-microtome, thaw-mounted on microscope slides and loaded in a β-imager to quantify PDE10 occupancy in the striatum.

Assay [2] addresses other members of the PDE family (Homo sapiens, UniProt O00408). As to the kind of experiment: In vitro PDE selectivity assay (SPA), other members of the PDE family (protocols in Table A). The assay is classed as biochemical. To be noted: hPDE2A; read-out: PDE 2A (expressed as pIC50) (converted). As to the method:
Rat recombinant PDE10A (rPDE10A2) was expressed in Sf9 cells using a recombinant rPDE10A baculovirus construct. Cells were harvested after 48 h of infection and the rPDE10A protein was purified by metal chelate chromatography on Ni-sepharose 6FF. Tested compounds were dissolved and diluted in 100% DMSO to a concentration 100 fold of the final concentration in the assay. Compound dilutions (0.4 μl) were added in 384 well plates to 20 μl of incubation buffer (50 mM Tris pH 7.8, 8.3 mM MgCl2, 1.7 mM EGTA). 10 μl of rPDE10A enzyme in incubation buffer was added and the reaction was started by addition of 10 μl substrate to a final concentration of 60 nM cAMP and 0.008 μCi ^3H-cAMP. The reaction was incubated for 60 minutes at room temperature. After incubation, the reaction was stopped with 20 μl of stop solution consisting of 17.8 mg/ml PDE SPA (scintillation proximity assay) beads. After sedimentation of the beads during 30 minutes the radioactivity was measured in a Perkin Elmer Topcount scintillation counter and results were expressed as cpm. For blanc values the enzyme was omitted from the reaction and replaced by incubation buffer. Control values were obtained by addition of a final concentration of 1% DMSO instead of compound. The same assay principle is applied for the measurement of the affinity of the compound for other members of the PDE family with appropriate modifications in incubation buffer, substrate concentration, incubation time and stop solution. An overview of the different protocols is presented in table A. A best fit curve is fitted by a minimum sum of squares method to the plot of % of control value substracted with blanc value versus compound concentration and the half maximal inhibitory concentration (IC50) value is derived from this curve.
The compounds of the invention are generally selective for PDE10 compared to other PDEs and there are a few that also have affinity for PDE1B1, 4D3 and 5A3.

Assay [3] deals with apomorphine-induced stereotypy in rats. In words: Apomorphine-induced stereotypy in rats (APO). To be noted: Rattus norvegicus. The assay is classed as in vivo. As to the method: Apomorphine (1.0 mg/kg, i.v.)-induced stereotypy (compulsive sniffing, licking, chewing) was scored every 5 min over the first hour after injection of apomorphine, following a 1 hour interval pre-treatment with the test compound. The score system was: (3) pronounced, (2) moderate, (1) slight, and (0) absent.

[4] abbreviates: pIC50 corresponds to the −log IC50 expressed in mol/L, read-out: PDE10A2 pIC50 (converted).
Setting [5] is: Table 4 in vitro selectivity, read-out: PDE 10A2 (expressed as pIC50) (converted).
The mark [6] stands for this setting: dose at which 50% of the tested animals show the effect, ≧: active in 30% of the animals at the indicated dose, ≦: active in 60%.
[7] abbreviates: n.d.: found not active at threshold dose 2.5 mg/kg or 10 mg/kg (a), not further tested.
Setting [8] is: sc, subcutaneous, read-out: SD sc % occupancy at 10 mg/kg.
Setting [9] is: po, * compound not soluble, tested orally as a suspension, ≧: active in 30% of the animals at the indicated dose, ≦: active in 60%.

By ED50 is commonly meant the midpoint of the dose-response relation. A higher ED50 goes with a need for a large dose.

Structures can show the parent of a compound that is named as a salt. Where two headings read alike, the source gives them in different places. Where only a bound is given, the exact number is not on record here.

Sequence of other members of the PDE family (O00408 whole entry): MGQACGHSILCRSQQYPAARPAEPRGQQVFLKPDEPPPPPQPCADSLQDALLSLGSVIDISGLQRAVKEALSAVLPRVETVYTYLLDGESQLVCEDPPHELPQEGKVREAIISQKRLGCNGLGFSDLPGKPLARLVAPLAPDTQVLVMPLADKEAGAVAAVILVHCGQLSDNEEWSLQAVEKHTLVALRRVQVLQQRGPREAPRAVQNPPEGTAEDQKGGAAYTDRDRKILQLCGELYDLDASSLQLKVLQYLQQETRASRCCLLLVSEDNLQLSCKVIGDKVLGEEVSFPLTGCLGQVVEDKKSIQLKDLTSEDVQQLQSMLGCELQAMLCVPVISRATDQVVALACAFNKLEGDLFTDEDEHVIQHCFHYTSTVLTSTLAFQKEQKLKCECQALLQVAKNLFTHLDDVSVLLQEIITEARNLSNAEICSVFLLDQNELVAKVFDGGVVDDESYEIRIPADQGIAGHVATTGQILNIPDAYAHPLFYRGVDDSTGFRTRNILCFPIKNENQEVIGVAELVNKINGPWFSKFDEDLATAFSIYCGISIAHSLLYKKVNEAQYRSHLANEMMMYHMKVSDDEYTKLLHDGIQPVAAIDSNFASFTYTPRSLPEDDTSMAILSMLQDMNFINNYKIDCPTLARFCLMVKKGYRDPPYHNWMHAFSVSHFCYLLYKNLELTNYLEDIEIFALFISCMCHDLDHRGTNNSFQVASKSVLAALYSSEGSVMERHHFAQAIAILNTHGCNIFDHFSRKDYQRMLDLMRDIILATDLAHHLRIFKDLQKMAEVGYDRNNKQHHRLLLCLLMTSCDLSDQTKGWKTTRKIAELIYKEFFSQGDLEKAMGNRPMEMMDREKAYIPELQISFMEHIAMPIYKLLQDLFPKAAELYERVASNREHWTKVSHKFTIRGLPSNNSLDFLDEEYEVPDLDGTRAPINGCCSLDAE

For the compound `COCCOc1ccc(-c2c(C)nc3c(-c4ccncc4)ccnn23)cn1` [compound 21a, 3-[6-(2-methoxyethoxy)-3-pyridinyl]-2-methyl-8-(4-pyridinyl)-imidazo[1,2-b]pyridazine hydrochloride salt], the IC50 in assay [1] (setting [4]) was 0.151 µM. At PDE10 (dose response, oral administration), the “PDE10 in vivo occupancy ED50 po” value was 14 mg/kg. The “PDE10 in vivo occupancy ED50 sc” value on PDE10 (dose response, subcutaneous administration) is listed as 2.6 mg/kg.

As to `COC(C)(C)Cc1ccc(-c2c(C3CC3)nc3c(-c4ccncc4)ccnn23)cn1` [compound 50, 2-cyclopropyl-3-[6-(2-methoxy-2-methylpropyl)-3-pyridinyl]-8-(4-pyridinyl)-imidazo[1,2-b]pyridazine], the IC50 in assay [1] (setting [5]) is 0.0145 µM; in assay [1] (setting [4]), 0.0145 µM; in assay [2], 6.92 µM. The ED50 in assay [3] (setting [6]) is 0.8 mg/kg.

`CC(C)(O)Cc1ccc(-c2c(C3CC3)nc3c(N4CCOCC4)ccnn23)cn1` [compound 54, 5-[2-cyclopropyl-8-(4-morpholinyl)imidazo[1,2-b]pyridazin-3-yl]-α,α-dimethyl-2-pyridineethanol]: the IC50 in assay [1] (setting [5]) is 0.0209 µM; in assay [1] (setting [4]), 0.0209 µM; in assay [2], more than 10 µM. For the same compound, the ED50 in assay [3] (setting [6]) is 1.2 mg/kg.

In the case of `Cc1nc2c(N3CCOCC3)ccnn2c1-c1ccc(OCC(F)(F)F)nc1` [compound 62, 2-methyl-8-(4-morpholinyl)-3-[6-(2,2,2-trifluoroethoxy)-3-pyridinyl]-imidazo[1,2-b]pyridazine], the IC50 in assay [1] (setting [4]) is 0.257 µM. Moreover, the 50% effective dose (ED50) in assay [3] (po, n.d.: found not active at threshold dose 2.5 mg/kg or 10 mg/kg (a), * not soluble, tested orally as a suspension) is more than 2.5 mg/kg. Besides, at PDE10 (oral, read-out: SD po % occupancy at 10 mg/kg), the receptor occupancy at 10 mg/kg was 38%.

With `Cc1nc2c(N3CCOCC3)ccnn2c1-c1ccc(OCC2CC2)nc1` [compound 65, 3-[6-(cyclopropylmethoxy)-3-pyridinyl]-2-methyl-8-(4-morpholinyl)-imidazo[1,2-b]pyridazine], the IC50 in assay [1] (setting [4]) is 0.162 µM. This compound also registered an ED50 in assay [3] (setting [7]) of more than 10 mg/kg. Further, on PDE10 (setting [8]), the receptor occupancy at 10 mg/kg came out at 17%.

Consider `Cc1nc2c(N3CCOCC3)ccnn2c1-c1ccc(OC(C)C)nc1` [compound 66, 2-methyl-3-[6-(1-methylethoxy)-3-pyridinyl]-8-(4-morpholinyl)-imidazo[1,2-b]pyridazine], for which the IC50 in assay [1] (setting [4]) was 0.178 µM. For the same compound, the ED50 in assay [3] (setting [7]) is more than 10 mg/kg. Further, on PDE10 (setting [8]), the receptor occupancy at 10 mg/kg was found to be 29%.

In the case of `Cc1nc2c(N3CCOCC3)ccnn2c1-c1ccnc(OC(C)C)c1` [compound 67, 2-methyl-3-[2-(1-methylethoxy)-4-pyridinyl]-8-(4-morpholinyl)-imidazo[1,2-b]pyridazine], the IC50 in assay [1] (setting [4]) was 0.0871 µM. Besides, in assay [3] (setting [7]), the ED50 is more than 10 mg/kg. In addition, the receptor occupancy at 10 mg/kg at PDE10 (setting [8]) worked out at 1%.

Take `Cc1cc(N2CCOCC2)c2nc(C)c(-c3ccc(N4CCOCC4)nc3)n2n1` [compound 68, 2,6-dimethyl-8-(4-morpholinyl)-3-[6-(4-morpholinyl)-3-pyridinyl]-imidazo[1,2-b]pyridazine]: the IC50 is 0.158 µM in assay [1] (setting [5]), 0.158 µM in assay [1] (setting [4]) and more than 10 µM in assay [2]. For the same compound, the ED50 in assay [3] (setting [9]) is not below 2.5 mg/kg.

With `Cc1cc(-c2ccncc2)c2nc(C3CC3)c(-c3ccc(N4CCOCC4)nc3)n2n1` [compound 71, 2-cyclopropyl-6-methyl-3-[6-(4-morpholinyl)-3-pyridinyl]-8-(4-pyridinyl)-imidazo[1,2-b]pyridazine], the IC50 is 0.0832 µM in assay [1] (setting [5]), 0.0832 µM in assay [1] (setting [4]) and 2.29 µM in assay [2]. Further, in assay [3] (setting [9]), the ED50 is not below 2.5 mg/kg.

For `COCCOc1ccc(-c2c(C3CC3)nc3c(-c4ccncc4)cc(C)nn23)cn1` [compound 72, 2-cyclopropyl-3-[6-(2-methoxyethoxy)-3-pyridinyl]-6-methyl-8-(4-pyridinyl)-imidazo[1,2-b]pyridazine], the IC50 in assay [1] (setting [5]) is 0.123 µM; in assay [1] (setting [4]), 0.123 µM; in assay [2] it was 1.05 µM. The ED50 in assay [3] (setting [9]) was not below 2.5 mg/kg.

On to `COCCn1cc(-c2c(C)nc3c(-c4ccncc4)ccnn23)cn1` [compound 114, 3-[1-(2-methoxyethyl)-1H-pyrazol-4-yl]-2-methyl-8-(4-pyridinyl)-imidazo[1,2-b]pyridazine], for which, in assay [1] (setting [4]), the IC50 was 0.0525 µM. Also, the ED50 in assay [3] (setting [7]) is more than 2.5 mg/kg. For the same compound, the receptor occupancy at 10 mg/kg at PDE10 (setting [8]) turned out to be 72%.

Take `COCCn1cc(-c2c(C(C)C)nc3c(-c4ccncc4)ccnn23)cn1` [compound 121, 3-[1-(2-methoxyethyl)-1H-pyrazol-4-yl]-2-(1-methylethyl)-8-(4-pyridinyl)-imidazo[1,2-b]pyridazine]: the IC50 in assay [1] (setting [4]) was 0.234 µM. This compound returned an ED50 in assay [3] (setting [7]) of more than 10 mg/kg. Also, the receptor occupancy at 10 mg/kg on PDE10 (setting [8]) amounted to 0%.

As for `Cc1nc2c(N3CCOCC3)ccnn2c1-c1cnn(CC(F)(F)C2CC2)c1` [compound 128, 3-[1-(2-cyclopropyl-2,2-difluoroethyl)-1H-pyrazol-4-yl]-2-methyl-8-(4-morpholinyl)-imidazo[1,2-b]pyridazine], the IC50 in assay [1] (setting [4]) is 0.0501 µM. The ED50 in assay [3] (setting [7]) is more than 10 mg/kg. Besides, the receptor occupancy at 10 mg/kg on PDE10 (setting [8]) worked out at 40%.

On to `COCCn1cc(-c2c(C)nc3c(-c4ccncc4)cc(C(F)(F)F)nn23)cn1` [compound 129, 3-[1-(2-methoxyethyl)-1H-pyrazol-4-yl]-2-methyl-8-(4-pyridinyl)-6-(trifluoromethyl)-imidazo[1,2-b]pyridazine], for which the IC50 was 2.63 µM in assay [1] (setting [5]), 2.63 µM in assay [1] (setting [4]) and more than 10 µM in assay [2].

For the compound `COCCn1cc(-c2c(C)nc3c(N4CCCC4)ccnn23)cn1` [compound 136, 3-[1-(2-methoxyethyl)-1H-pyrazol-4-yl]-2-methyl-8-(1-pyrrolidinyl)-imidazo[1,2-b]pyridazine], the IC50 in assay [1] (setting [5]) is 0.525 µM; in assay [1] (setting [4]), 0.525 µM; in assay [2], more than 10 µM.

With `c1cc(N2CCOCC2)c2ncc(-c3ccc(N4CCOCC4)nc3)n2n1` [compound 144, 8-(4-morpholinyl)-3-[6-(4-morpholinyl)-3-pyridinyl]-imidazo[1,2-b]pyridazine], the results for the IC50 in assay [1] (setting [5]), in assay [1] (setting [4]) and in assay [2] were 0.324 µM, 0.324 µM and more than 10 µM, respectively.

These data come from patent US20120220581A1, “IMIDAZO[1,2-b]PYRIDAZINE DERIVATIVES AND THEIR USE AS PDE10 INHIBITORS” (Janssen-Cilag, S.A., priority 2009, published 2012).
